We go through eleven molecules from patent publication US5053333A, “Protease” (M & D Research Co., Ltd., priority 1988, dated 1991).

Assay [1] concerns Benz-I (protease specific for basic amino acid residue). The assay is described as follows: Cleavage of peptides by Benz-I, HPLC and amino acid composition of fragments. In kind it is biochemical, Kluyveromyces lactis IFO 1903. The protocol:
The composition of the employed reaction mixture and the examination conditions were as follows. Namely, 500 μl of a reaction mixture containing 25 μmol of tris hydrochloride buffer solution (pH 7.0), 0.25 μmol of CaCl2, 5 mg of Lubrol PX, 100 μg of NaN3, each peptide at various concentrations and Benz-I at various concentrations was allowed to react at 30° C. for 20 hours.
50-μl portions of the reaction mixture were sampled after the reaction for 0 and 20 hours and 50 μl of a reaction terminating agent comprising 0.2% of TFA and 10 mM of EDTA was added thereto. The resulting mixture was analyzed by HPLC. The HPLC was conducted by CH3 CN gradient elution with the use of an Ultron NC18 column (0.45×15 cm) or a TSK gel ODS-80TM column (0.46×25 cm) in the presence of 0.1% of TFA.
The residual reaction mixture was chromatographed under the same conditions as those employed in the above analysis and main peaks were fractionated. The fractionated eluate was evaporated to dryness on a centrifugal evaporator and decomposed with hydrochloric acid at 110° C. for 24 hours. Then each fragment was assumed from the amino acid composition.

The test system of assay [2] is protease specific for basic amino acid residue from Sporobolomyces odrus IFO 1597. In kind it is biochemical. As to the method: The enzyme was treated in the standard reaction mixture containing 1 mM of EDTA and free from any substrate at 25° C. for 30 minutes. Various metal ions were added thereto each in such an amount as to give a concentration of 1.5 mM and the mixture was incubated at 30° C. for five minutes. Then the activity of each case was determined.

In assay [3] the test system is Benz-I (protease specific for basic amino acid residue). In kind it is biochemical, Kluyveromyces lactis IFO 1903. The protocol: Benz-I was incubated in the presence of 10 mM of EDTA at 4° C. for one hour. When the enzyme was completely inactivated, the culture was dialyzed against 10 mM tris hydrochloride buffer solution (pH 7.0) containing 0.2% of Lubrol PX to thereby completely remove the EDTA. The enzyme mixture thus dialyzed was examined with respect to the recovery of the activity in reaction mixtures containing 0.5 mM of various metal ions.

The test system of a further assay is protease B. Description: Activation and inhibition of protease B (stated properties). The assay is classed as biochemical, Kluyveromyces lactis IFO 1903.
The next assay deals with protease A. Description: Activation and inhibition of protease A (stated properties). The assay is classed as biochemical, Sporobolomyces odrus IFO 1597. As to the method:
The enzymes was incubated in the absence of any substrate in standard reaction mixtures containing various inhibitors at 25° C. for 30 minutes. After adding the substrate, the residual activity of each enzyme was determined.
The enzyme was reacted in the standard reaction mixture while varying the type and concentration of surfactants.
The activity of the enzyme was determined in the presence of 0.1% of EDTA while varying the concentration of CaCl2. […] The concentration of free CaCl2 was calculated from the apparent dissociation constant (K1) of EDTA for CaCl2 (log K1 =7.3).

In assay [4] the test system is protease specific for basic amino acid residue from Sporobolomyces odrus IFO 1597. The assay is described as follows: Behavior of Sporobolomyces protease against various inhibitors (residual activity). The assay is classed as biochemical. The conditions noted are these: pH 7, 30 min, 1000 µM.
The mark [5] stands for this setting: 200 mU Benz-I, 50 nmol peptide, 30° C., 20 hours.
Where [6] appears, read: EDTA treatment +, reaction system EDTA (1 mM) +, metal 1.5 mM, 30° C. five minutes.
The mark [7] stands for this setting: Benz-I treated with 10 mM EDTA, dialyzed, reaction mixture with 0.5 mM metal ion, control lot = 100.

“Also recorded” adds a separate entry of the source. Where two headings read alike, the source gives them in different places. Square brackets hold non-standard residues; d marks the D form. Ends that are not written are not given here. Peptide text beside a SMILES is read from it. pGlu = O=C1CC[C@@H](C(=O)O)N1

`CC[C@H](C)[C@H](NC(=O)[C@H](Cc1c[nH]c2ccccc12)NC(=O)[C@@H]1CCCN1C(=O)[C@H](CCCNC(=N)N)NC(=O)[C@H](CCCCN)NC(=O)CNC(=O)[C@@H]1CCC(=O)N1)C(=O)N[C@@H](CC(C)C)C(=O)O` [Xenopsin] ([pGlu]GKRPWIL-OH): the “Fragment obtained (assumed from amino acid composition) after reaction with Benz-I” value (“Fragment obtained” below) in assay [1] (setting [5]) is listed as “pGlu-Gly-Lys-Arg”.
With `[Ca+2].[Cl-].[Cl-]` [calcium chloride], the values for the Relative activity in assay [2] (setting [6]) and in assay [3] (setting [7]) were 107% and 93.1%, respectively. In addition, in the assay on protease B (statement in words), the “activation of protease B” value is listed as “activated”. In addition, in the assay with protease A (statement in words), the “activation of protease A” value is listed as “best activated”.
For `[Cl][Co][Cl]` [cobalt chloride], the Relative activity in assay [2] (setting [6]) stood at 57%; in assay [3] (setting [7]), 21.1%.
As for `O=C(O)CN(CCN(CC(=O)O)CC(=O)O)CC(=O)O` [ethylenediaminetetraacetic acid], the Relative activity in assay [2] is reported as 3%; in assay [2] (pH 7, 1000 µM) it was 0%; in assay [3], 0.36%; in assay [3] (10000 µM) it was 0.09%. In addition, the “inhibition of protease B” value in the assay with protease B is “inhibited”. Moreover, the “inhibition of protease A” value in the assay with protease A is on record as “inhibited”. In assay [4], the “relative activity (residual)” value is on record as 2%.
Take `[Cl-].[Cl-].[Mg+2]` [magnesium chloride]: the Relative activity is given as 12% in assay [2] (setting [6]) and 43.6% in assay [3] (setting [7]).
In the case of `[Cl][Mn][Cl]` [manganese chloride], the Relative activity in assay [2] (setting [6]) is given as 53%; in assay [3] (setting [7]) it was 33.9%.
The like results for `[Cl][Ni][Cl]` [nickel chloride] were, in that order, 58% and 16.1%.
Turning to “RKRSRKE [protein kinase-related peptide]”, the “Fragment obtained” value in assay [1] (setting [5]) is “Ser-Arg-Lys-Glu”.
As for “Tyr-Gly-Gly-Phe-Leu-Arg-Arg-Ile-Arg-Pro-Lys-Leu-Lys (YGGFLRRIRPKLK; printed: Tyr-Gly-Gly-Phe-Leu-Arg-Arg-Ile-Arg-Pro-Lys-Leu-Lys) [Dynorphin A (1-13)]”, the “Fragment obtained” value in assay [1] is recorded as “Ile-Arg-Pro-Lys-Leu-Lys; also recorded: Try-Gly-Gly-Phe-Leu-Arg-Arg”.
As for “YGGFMRRVGRPEWWMDYQKRYGGFL [3200-dalton Adrenal Peptide E]”, in assay [1], the “Fragment obtained” value is given as “^1 Tyr-Gly-Gly-Phe-Met-Arg-^7 Arg; also recorded: ^21 Tyr-Gly-Gly-Phe-^25 Leu”.
Same read-out and setting: for YGGFMRRVRPE [BAM-12P] the value was “Val-Gly-Arg-Pro-Glu”.
